Our source for the Binding % values is patent US12134620B2 (ARAXES PHARMA LLC, priority 2018, dated 2024).

The test concerns the target T1, KRAS G12C 1-169, his-tagged protein, GDP-loaded (Homo sapiens, UniProt P01116, G12C).
T1 construct: KRAS G12C 1-169, his-tagged protein, GDP-loaded; His tag
The experiment in a line: Biochemical assay: covalent modification of KRAS G12C, analysed by mass spectrometry (RapidFire/TOF or Q-Exactive). Note: time not given here. The class given is binding. The settings on record: Modification activity, modification percentage from MS peak intensities. In short, it runs like this: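 GDP-loaded His-tagged KRAS G12C 1-169 (2 μM or 0.5 μM in 20 mM Hepes, 150 mM NaCl, 1 mM MgCl2) reacted with compound at 32 μM or 8 μM final (2% DMSO) for a set time, then quenched with formic acid. Percent covalent modification from deconvoluted intact-protein MS peak intensities (RapidFire/TOF or LC-Q Exactive).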
For `C=CC(=O)N1CC2(CCN(c3nc(OCc4cnc(C)nc4)nc(-c4c(C)ccc5cnn(C)c45)c3C#N)C2)C1` [Compound I-169, 4-(2-acryloyl-2,6-diazaspiro[3.4]octan-6-yl)-6-(1,6-dimethyl-1H-indazol-7-yl)-2-((2-methylpyrimidin-5-yl)methoxy)pyrimidine-5-carbonitirle], the Binding % entry is “++ (++ indicates binding activity from 50 to 85%)”. In the case of `C=CC(=O)N1CC2(CCN(c3nc(OCc4cccc(C)n4)nc(-c4c(C)ccc5cnn(C)c45)c3C#N)C2)C1` [Compound I-170, 4-(2-acryloyl-2,6-diazaspiro[3.4]octan-6-yl)-6-(1,6-dimethyl-1H-indazol-7-yl)-2-((6-methylpyridin-2-yl)methoxy)pyrimidine-5-carbonitrile] it was “++ (++ indicates binding activity from 50 to 85%)”; in that of `C=CC(=O)N1CC2(CCN(c3nc(OCc4cnc(C)nc4)nc(-c4c(C)ccc5[nH]ncc45)c3C#N)C2)C1` [Compound I-171, 4-(2-acryloyl-2,6-diazaspiro[3.4]octan-6-yl)-6-(5-methyl-1H-indazol-4-yl)-2-((2-methylpyrimidin-5-yl)methoxy)pyrimidine-5-carbonitrile], “+++ (+++ indicates binding activity greater than 85%)”; in that of `C=CC(=O)N1CC2(CCN(c3nc(OCc4cccc(C)n4)nc(-c4c(C)ccc5[nH]ncc45)c3C#N)C2)C1` [Compound I-172, 4-(2-acryloyl-2,6-diazaspiro[3.4]octan-6-yl)-6-(5-methyl-1H-indazol-4-yl)-2-((6-methylpyridin-2-yl)methoxy)pyrimidine-5-carbonitrile], “+++ (+++ indicates binding activity greater than 85%)”.

As to `C=CC(=O)N1CC2(CCN(c3nc(OCc4ccnnc4)nc(-c4c(C)ccc5[nH]ncc45)c3C#N)C2)C1` [Compound I-173, 4-(2-acryloyl-2,6-diazaspiro[3.4]octan-6-yl)-6-(5-methyl-1H-indazol-4-yl)-2-(pyridazin-4-ylmethoxy)pyrimidine-5-carbonitrile], the Binding % result was “++ (++ indicates binding activity from 50 to 85%)”. Under `C=CC(=O)N1CC2(CCN(c3nc(OCc4cc(C(F)(F)F)ccn4)nc(-c4c(C)ccc5[nH]ncc45)c3C#N)C2)C1` [Compound I-174, 4-(2-acryloyl-2,6-diazaspiro[3.4]octan-6-yl)-6-(5-methyl-1H-indazol-4-yl)-2-((4-(trifluoromethyl)pyri-din-2-yl)methoxy)pyrimidine-5-carbonitrile] stands “++ (++ indicates binding activity from 50 to 85%)”; under `C=CC(=O)N1CC2(CCN(c3c(OCc4ccccn4)ncc(-c4c(C)ccc5cnn(C)c45)c3C#N)C2)C1` [Compound I-175, 3-(2-acryloyl-2,6-diazaspiro[3.4]octan-6-yl)-5-(1,6-dimethyl-1H-indazol-7-yl)-2-(pyridin-2-ylmethoxy)isonicoti-nonitrile], “++ (++ indicates binding activity from 50 to 85%)”.

For the compound `C=CC(=O)N1CC2(CC(=O)N(c3nc(N4CCOCC4)nc(-c4c(C)ccc5cn[nH]c45)c3C#N)C2)C1` [Compound I-176, 4-(2-acryloyl-7-oxo-2,6-diazaspiro[3.4]octan-6-yl)-6-(6-methyl-1H-indazol-7-yl)-2-morpholinopyrimidine-5-carbonitrile], the Binding % entry is “+ (+ indicates binding activity greater than 0% and up to 50%)”. In the case of `C=CC(=O)N1CC2(CC(=O)N(c3nc(N4CCOCC4)nc(-c4c(O)cccc4F)c3C#N)C2)C1` [Compound I-177, 4-(2-acryloyl-7-oxo-2,6-diazaspiro[3.4]octan-6-yl)-6-(2-fluoro-6-hydroxyphenyl)-2-morpholinopyrimidine-5-carbonitrile] it was “+ (+ indicates binding activity greater than 0% and up to 50%)”; in that of `C=CC(=O)N1CC2(CCN(c3nc(=O)n(Cc4ccccc4)c(-c4c(C)ccc5[nH]ncc45)c3C#N)C2)C1` [Compound I-178, 4-(2-acryloyl-2,6-diazaspiro[3.4]octan-6-yl)-1-benzyl-6-(5-methyl-1H-indazol-4-yl)-2-oxo-1,2-dihydropyrimidine-5-carbonitrile], “+ (+ indicates binding activity greater than 0% and up to 50%)”.

As for `C=CC(=O)N1CC2(CCN(c3c(C#N)c(-c4c(C)ccc5[nH]ncc45)[nH]c(=O)[n+]3Cc3ccccc3)C2)C1` [Compound I-179, 6-(2-acryloyl-2,6-diazaspiro[3.4]octan-6-yl)-1-benzyl-4-(5-methyl-1H-indazol-4-yl)-2-oxo-2H-1l4,3l2-pyrimidine-5-carbonitrile], the Binding % result is “+ (+ indicates binding activity greater than 0% and up to 50%)”. Under `C=CC(=O)N1CC2(CCN(c3nc(C4CCN(C)CC4)nc(-c4c(C)ccc5[nH]ncc45)c3C#N)C2)C1` [Compound I-180, 4-(2-acryloyl-2,6-diazaspiro[3.4]octan-6-yl)-6-(5-methyl-1H-indazol-4-yl)-2-(1-methylpiperidin-4-yl)pyrimidine-5-carbonitrile] stands “++ (++ indicates binding activity from 50 to 85%)”; under `C=CC(=O)N1CC2(CCN(c3nc(OCc4ccc(N5CCN(C)CC5)cn4)nc(-c4c(C)ccc5[nH]ncc45)c3C#N)C2)C1` [Compound I-181, 4-(2-acryloyl-2,6-diazaspiro[3.4]octan-6-yl)-6-(5-methyl-1H-indazol-4-yl)-2-((5-(4-methylpiperazin-1-yl)pyridin-2-yl)methoxy)pyrimidine-5-carbonitrile], “++ (++ indicates binding activity from 50 to 85%)”. Turning to `C=CC(=O)N1CC2(CCN(c3c(OC[C@@H]4CCCN4C)ncc(-c4c(C)ccc5cnn(C)c45)c3C#N)C2)C1` [Compound I-182, 3-(2-acryloyl-2,6-diazaspiro[3.4]octan-6-yl)-5-(1,6-dimethyl-1H-indazol-7-yl)-2-(((S)-1-methylpyrrolidin-2-yl)methoxy)isonicoti-nonitrile], the Binding % entry is “+ (+ indicates binding activity greater than 0% and up to 50%)”.

For the compound `C=CC(=O)N1CC2(CCN(c3nc(CCN4CCCC4)nc(-c4c(C)ccc5[nH]ncc45)c3C#N)C2)C1` [Compound I-183, 4-(2-acryloyl-2,6-diazaspiro[3.4]octan-6-yl)-6-(5-methyl-1H-indazol-4-yl)-2-(2-(pyrrolidin-1-yl)ethyl)pyrimidine-5-carbonitrile], the Binding % result is “+ (+ indicates binding activity greater than 0% and up to 50%)”.

As to `C=CC(=O)N1CC2(CCN(c3c(OCCCN(C)C)ncc(-c4c(C)ccc5cnn(C)c45)c3C#N)C2)C1` [Compound I-184, 3-(2-acryloyl-2,6-diazaspiro[3.4]octan-6-yl)-5-(1,6-dimethyl-1H-indazol-7-yl)-2-(3-(dimethylamino)pro-poxy)isonicotinonitrile], the Binding % entry is “+ (+ indicates binding activity greater than 0% and up to 50%)”. In the case of `C=CC(=O)N1CC2(CCN(c3nc(OC[C@@H]4CCCN4C)cc(-c4c(C)ccc5[nH]ncc45)c3C#N)C2)C1` [Compound I-185, 2-(2-acryloyl-2,6-diazaspiro[3.4]octan-6-yl)-4-(5-methyl-1H-indazol-4-yl)-6-(((S)-1-methylpyrrolidin-2-yl)methoxy)nicotino-nitrile] it was “+++ (+++ indicates binding activity greater than 85%)”; in that of `C=CC(=O)N1CC2(CCN(c3nc(OCc4ccc(N5CCN(C)CC5)cn4)nc(-c4c(C)ccc5cnn(C)c45)c3C#N)C2)C1` [Compound I-186, 4-(2-acryloyl-2,6-diazaspiro[3.4]octan-6-yl)-6-(1,6-dimethyl-1H-indazol-7-yl)-2-((5-(4-methylpiperazin-1-yl)pyridin-2-yl)methoxy)pyrimidine-5-carbonitrile], “+ (+ indicates binding activity greater than 0% and up to 50%)”; in that of `C=CC(=O)N1CC2(CCN(c3nc(N4CC(N(C)C)C4)cc(-c4c(C)ccc5[nH]ncc45)c3C#N)C2)C1` [Compound I-187, 2-(2-acryloyl-2,6-diazaspiro[3.4]octan-6-yl)-6-(3-(dimethylamino)azeti-din-1-yl)-4-(5-methyl-1H-indazol-4-yl)nicotinonitrile], “+ (+ indicates binding activity greater than 0% and up to 50%)”. Under `C=CC(=O)N1CC2(CCN(c3nc(N4CCC(N5CCN(C)[C@H](C)C5)CC4)nc(-c4c(C)ccc5[nH]ncc45)c3C#N)C2)C1` [Compound I-188, 4-(2-acryloyl-2,6-diazaspiro[3.4]octan-6-yl)-2-(4-((R)-3,4-dimethylpiperazin-1-yl)piperidin-1-yl)-6-(5-methyl-1H-indazol-4-yl)pyrimidine-5-carbonitrile] stands “+++ (+++ indicates binding activity greater than 85%)”; under `C=CC(=O)N1CC2(CCN(c3nc(-c4c(C)ccc5[nH]ncc45)nc(N4CCOCC4)n3)C2)C1` [Compound I-189, 1-(6-(4-(5-methyl-1H-indazol-4-yl)-6-morpholino-1,3,5-triazin-2-yl)-2,6-diazaspiro[3.4]octan-2-yl)prop-2-en-1-one], “+ (+ indicates binding activity greater than 0% and up to 50%)”; under `C=CC(=O)N1CC2(CCN(c3nc(N4CCOCC4)nc(-c4c(C)ccc5[nH]ncc45)c3C#CC3CC3)C2)C1` [Compound I-190, 1-(6-(5-(cyclopropylethynyl)-6-(5-methyl-1H-indazol-4-yl)-2-morpholinopyrimidin-4-yl)-2,6-diazaspiro[3.4]octan-2-yl)prop-2-en-1-one], “+ (+ indicates binding activity greater than 0% and up to 50%)”.

Turning to `C=CC(=O)N1CC2(CCN(c3nc(N4CCC(N5CCN(C)[C@@H](C)C5)CC4)nc(-c4c(C)ccc5[nH]ncc45)c3C#N)C2)C1` [Compound I-191, 4-(2-acryloyl-2,6-diazaspiro[3.4]octan-6-yl)-2-(4-((S)-3,4-dimethylpiperazin-1-yl)piperidin-1-yl)-6-(5-methyl-1H-indazol-4-yl)pyrimidine-5-carbonitrile], the Binding % result is recorded as “+++ (+++ indicates binding activity greater than 85%)”.
